For one data set, the system named is Alternaria solani. In words: Alternaria test (tomato) / protective. The settings on record: 500 ppm active compound, protective spray, evaluated 7 days after inoculation. The class given is in vivo. The method, boiled down:
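Efficacy scored 7 days after inoculation, where 100% means no infection and 0% matches the untreated control. Test plants were young tomatoes given a protective spray at the stated rate, compound dissolved in DMF plus emulsifier and diluted with water. Incubation at 20° C, 96% relative humidity.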

The test system of the next data set is Leptosphaeria nodorum. Nature of the data set: Leptosphaeria nodorum test (wheat) / protective. The class given is in vivo. To be noted: 500 ppm active compound, protective spray, evaluated 7-9 days after inoculation. The procedure: Leptosphaeria nodorum Test (Wheat)/Protective
Solvent: 49 parts by weight of N,N-dimethylformamide
Emulsifier: 1 part by weight of alkylaryl polyglycol ether
To produce a suitable preparation of active compound, 1 part by weight of active compound is mixed with the stated amounts of solvent and emulsifier, and the concentrate is diluted with water to the desired concentration.
To test for protective activity, young wheat plants are sprayed with the preparation of active compound at the stated application rate. […] The plants are then placed in a greenhouse at 90% rel. atmospheric humidity and a temperature of 22° C.
Evaluation is carried out 7-9 days after the inoculation. 0% means an efficacy which corresponds to that of the control, whereas an efficacy of 100% means that no infection is observed.

Another data set concerns Pyrenophora teres. Nature of the data set: In vivo test on Pyrenophora teres (barley net blotch). To be noted: dose of 500 ppm; barley plants; grading 12 days after contamination. The method, boiled down:
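Scoring is done 12 days after spore spraying (12,000 spores/ml, from 12-day-old culture), relative to water-treated controls. Inoculation follows by 24 h a preventive spray of the aqueous-diluted formulation onto 1-leaf Plaisant barley raised at 12° C.; infection holds 24 h at about 20° C./100% RH, then 12 days at 80% RH.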

The test system of a further data set is Fusarium graminearum. The class given is cell-based. To be noted: 50 μM; for % Inhibition of DON/AcDON at 50 μM: 7 days at 28° C.

Where two headings read alike, the source gives them in different places. Marks after values point to notes of the source that are not given here.

Consider `CC(=O)Nc1cc(-c2cn(CC(C)C)nc2-c2ccc(Cl)s2)cc[n+]1[O-]` [Example 80], for which the log p (pH 2.3) was 2.86^[a]. For the same compound, the efficacy with Alternaria solani was determined as 94%; with Leptosphaeria nodorum, 70%.
Turning to `CC(C)Cn1cc(-c2ccnc(N)n2)c(-c2ccc(Cl)s2)n1` [Example 95], where the note is “pH 2.3”, the log p is 2.35^[a]. Moreover, the efficacy in the data set with Alternaria solani is on record as 70%; in the data set on Leptosphaeria nodorum, 80%.
With `Cc1c(-c2ccncc2)c(-c2ccc(Cl)s2)nn1C(C)C` [Example 145], the protection in the data set with Pyrenophora teres is listed as 100%. For the same compound, the log p runs as follows: (pH 2.7) 2.07^[b]; (pH 7.8) 3.8^[c];. Also, the efficacy with Alternaria solani is on record as 100%; in the data set with Leptosphaeria nodorum, 95%.
Compound `CCn1nc(-c2ccc(Cl)s2)c(-c2ccncc2)c1C` [Example 146] returned a protection in the data set on Pyrenophora teres of 100%. Also, the log p by setting is: (pH 2.7) 1.61^[b]; (pH 7.8) 3.08^[c];. The efficacy in the data set with Alternaria solani and in the data set on Leptosphaeria nodorum was 95% each time.
In the case of `CCC(=O)Nc1cc(-c2c(-c3ccc(Cl)s3)nn(C(C)C)c2C)ccn1` [Example 168], the protection in the data set on Pyrenophora teres was found to be 90%. The log p is 3.34^[b] (pH 2.7) and 3.76^[c]; (pH 7.8). Besides, the efficacy with Alternaria solani and in the data set on Leptosphaeria nodorum was 90% throughout.
The compound `CCC(=O)Nc1cc(-c2c(-c3ccc(Cl)s3)nn(CC)c2C)ccn1` [Example 169] yielded a protection in the data set on Pyrenophora teres of 95%. The log p by setting is: (pH 2.7) 2.71^[b]; (pH 7.8) 3.1^[c];. The efficacy with Alternaria solani was 95%; in the data set on Leptosphaeria nodorum it was 80%.
`CCC(=O)Nc1cc(-c2c(-c3ccc(Cl)s3)nn(C)c2C)ccn1` [Example 170]: the protection in the data set with Pyrenophora teres turned out to be 80%. Moreover, the log p is 2.32^[b] (pH 2.7) and 2.68^[c]; (pH 7.8). The efficacy in the data set with Alternaria solani and in the data set on Leptosphaeria nodorum was 90% in each case.
Regarding `CC(=O)N(C(C)=O)c1nccc(-c2cn(C(C)C)nc2-c2ccc(Cl)s2)n1` [Example 171], the protection in the data set on Pyrenophora teres was 95%. Besides, the log p (pH 2.3) is 3.33^[a]. The compound also yielded an efficacy in the data set on Leptosphaeria nodorum of 89%.
The corresponding values for `CCC(=O)Nc1nccc(-c2cn(C(C)C)nc2-c2ccc(Cl)s2)n1` [Example 172] are 100%, 3.04^[a] and 89%.
Compound `CCC(C)n1cc(-c2ccnc(NC(=O)C(C)C)n2)c(-c2ccc(Cl)s2)n1` (stereo not shown) [Example 173] showed a protection with Pyrenophora teres of 95%. The log p (pH 2.3) is 3.72^[a]. This compound gave an efficacy in the data set with Leptosphaeria nodorum of 89%.
In the data set on Pyrenophora teres, `CCC(=O)Nc1cc(-c2cn(C(C)C)nc2-c2cccs2)ccn1` [Example 175] yielded a protection of 90%. Moreover, the log p is, setting by setting: (pH 2.7) 2.01^[b]; (pH 7.8) 2.61^[c];. The values for the efficacy in the data set with Alternaria solani and in the data set on Leptosphaeria nodorum were 80% and 70%, respectively.
As for `CC(C)n1cc(-c2ccnc(NC3COC3)n2)c(-c2ccc(Cl)s2)n1` [Example 179], the protection with Pyrenophora teres amounted to 90%. Besides, the log p (pH 2.3) is 2.7^[a]. For the same compound, the efficacy in the data set with Alternaria solani and with Leptosphaeria nodorum was 80% in each case.
With `C#CCNc1nccc(-c2cn(C(C)C)nc2-c2ccc(Cl)s2)n1` [Example 180], in the data set with Pyrenophora teres, the protection is 80%. In addition, where the note is “pH 2.3”, the log p was 3.25^[a]. For the same compound, the efficacy in the data set on Leptosphaeria nodorum came out at 70%.
`CC(C)Nc1nccc(-c2cn(C(C)C)nc2-c2ccc(Cl)s2)n1` [Example 181] came in with a protection in the data set on Pyrenophora teres of 80%. Further, the log p (pH 2.3) was 2.82^[a]. The compound further registered an efficacy with Leptosphaeria nodorum of 70%.
Consider `CCC(=O)Nc1nccc(-c2cn(C(C)CC)nc2-c2ccc(Cl)s2)n1` (stereo not shown) [Example 190], for which the protection in the data set with Pyrenophora teres is 95%. Besides, the log p (pH 2.3) is 3.37^[a]. Further, the efficacy in the data set on Alternaria solani is 80%; in the data set on Leptosphaeria nodorum it was 70%.
Turning to `CCC(=O)Nc1cc(-c2cn(C(C)CC)nc2-c2ccc(Cl)s2)ccn1` (stereo not shown) [Example 225], in the data set on Pyrenophora teres, the protection amounted to 95%. Further, the log p (pH 2.7) is 3.19^[b]. The efficacy is recorded as 95% with Alternaria solani and 70% in the data set on Leptosphaeria nodorum. In addition, the “% Inhibition of fungal growth at 50 μM” value in the data set with Fusarium graminearum was 87%. Also, the “% Inhibition of DON/AcDON at 50 μM” value in the data set with Fusarium graminearum is recorded as 99%.
The compound `CCC(C)n1cc(-c2ccnc(NC(=O)C3CC3)c2)c(-c2ccc(Cl)s2)n1` (stereo not shown) [Example 226] displayed a protection in the data set with Pyrenophora teres of 100%. In addition, the log p (pH 2.7) was 3.35^[b]. The compound further gave an efficacy in the data set on Alternaria solani of 90%. In addition, in the data set on Leptosphaeria nodorum, the efficacy came to 80%. Further, in the data set with Fusarium graminearum, the “% Inhibition of fungal growth at 50 μM” value is on record as 93% and the “% Inhibition of DON/AcDON at 50 μM” value is 99%.
Compound `CC(C)n1cc(-c2ccnc(NC(=O)N(C)C)c2)c(-c2ccc(Cl)s2)n1` [Example 248] gave a protection with Pyrenophora teres of 100%. The log p (pH 2.7) was 1.97^[b]. Also, the efficacy with Alternaria solani and in the data set on Leptosphaeria nodorum was 90% each time.
`CCn1cc(-c2ccnc(NC(=O)C3CCC3)c2)c(-c2ccc(Cl)s2)n1` [Example 269] returned a protection in the data set on Pyrenophora teres of 80%. Also, the log p (pH 2.7) was 2.92^[b]. In the data set with Leptosphaeria nodorum, this compound displayed an efficacy of 70%. Moreover, in the data set with Fusarium graminearum, the “% Inhibition of fungal growth at 50 μM” value turned out to be 58% and the “% Inhibition of DON/AcDON at 50 μM” value was 87%.
`Cn1cc(-c2ccnc(NC(=O)Cc3ccccc3)c2)c(-c2ccc(Cl)s2)n1` [Example 277] came in with a protection in the data set with Pyrenophora teres of 90%. In addition, the log p (pH 2.7) is 3.06^[b]. For the same compound, the results for the efficacy in the data set with Alternaria solani and in the data set with Leptosphaeria nodorum were 90% and 70%, respectively.
Compound `CCC(C)C(=O)Nc1cc(-c2cn(C)nc2-c2ccc(Cl)s2)ccn1` (stereo not shown) [Example 280] gave a protection in the data set on Pyrenophora teres of 90%. The log p (pH 2.7) was 2.71^[b]. In addition, the efficacy in the data set on Alternaria solani came out at 90%; in the data set on Leptosphaeria nodorum, 80%.
Take `FC(F)Cn1cc(-c2ccncc2)c(-c2ccc(Br)s2)n1` [Example 384]: for the setting “pH 2.7”, the log p is 1.67^[b] and the “logP value of the minor isomer” value is listed as “(1.51)”. The efficacy with Alternaria solani worked out at 94%. In the data set with Leptosphaeria nodorum, this compound registered an efficacy of 90%. For the same compound, in the data set on Fusarium graminearum, the “% Inhibition of fungal growth at 50 μM” value was 100% and the “% Inhibition of DON/AcDON at 50 μM” value is reported as 99%.
Consider `CC1(Cn2cc(-c3ccncc3)c(-c3ccc(Br)s3)n2)CC1(Cl)Cl` (stereo not shown) [Example 386], for which, for the setting “pH 2.7”, the log p was 2.75^[b] and the “logP value of the minor isomer” value is on record as “(2.50)”. In the data set on Alternaria solani, this compound gave an efficacy of 89%. Besides, the efficacy with Leptosphaeria nodorum was 80%. Moreover, in the data set with Fusarium graminearum, the “% Inhibition of fungal growth at 50 μM” value worked out at 0% and the “% Inhibition of DON/AcDON at 50 μM” value is listed as 99%.
With `FCCn1cc(-c2ccncc2)c(-c2ccc(Br)s2)n1` [Example 388], under “pH 2.7”, the log p is 1.49^[b] and the “logP value of the minor isomer” value is listed as “(1.34)”. The efficacy in the data set with Alternaria solani amounted to 100%. The efficacy in the data set with Leptosphaeria nodorum was 80%. In addition, in the data set on Fusarium graminearum, the “% Inhibition of fungal growth at 50 μM” value stood at 100% and the “% Inhibition of DON/AcDON at 50 μM” value was 99%.
For the compound `CCC(CC)n1cc(-c2ccncc2)c(-c2ccc(Br)s2)n1` [Example 392], for the setting “pH 2.7”, the log p was 2.39^[b] and the “logP value of the minor isomer” value is given as “(2.22)”. Moreover, the efficacy in the data set with Alternaria solani was 100%. In the data set with Leptosphaeria nodorum, the efficacy is recorded as 70%. In the data set with Fusarium graminearum, the “% Inhibition of fungal growth at 50 μM” value is on record as 97% and the “% Inhibition of DON/AcDON at 50 μM” value is reported as 99%.
